For experiment [1], the system named is C. albicans CAF2-1 strain. Kind of experiment: Anti-Candida activity (MIC measurement). In kind it is cell-based. As to conditions: CAF21STRAIN, minimum inhibitory concentration (MIC) by visual inspection, RPMI 1640, 42 to 48 hours at 35° C. As for the experimental part: (§1) 1. Anti-Candida Activity and Anti-Aspergillus Activity
(§2) (1) Preparation of Fungal Sample
(§3) For the C. albicans CAF2-1 strain, a fungal suspension from a standing culture for 48 hours at 30° C. in a Sabouraud dextrose liquid culture medium (SDB) was diluted with RPMI 1640 medium to adjust a fungal suspension of 1.2×10^3 cells/mL. For the A. fumigatus Tsukuba strain, −80° C. stored strain was diluted with RPMI 1640 medium to adjust to a fungal suspension of 4.5×10^3 cells/mL.
(§4) (2) Preparation of an Agent Dilution Plate
(§5) Using a U-bottomed 96-well plate, 8 samples/plate (A to H) of sample dilution solutions were prepared. On the 2nd to 12th rows were dispensed 10 μL of dimethyl sulfoxide solution. Weighed sample was dissolved in dimethyl sulfoxide to prepare a 2.5 mg/mL solution, 20 μL of this solution was added to the first row of the prepared plate, and 12 steps of two-fold step dilutions (10 μL of solution+10 μL of dimethyl sulfoxide solution) were performed on the plate. This sample dilution solution was dispensed in an amount of 1 μL into a flat-bottomed 96-well plate for MIC measurement to prepare a sample dilution plate.
(§6) (3) Inoculation of Fungal Suspension and Culture
(§7) The fungal suspension prepared in (1) was used in an amount of 99 μL/well to inoculate the flat-bottomed 96-well plate containing 1 μL/well of the test compound dilution prepared in (2), and standing culture was performed aerobically for 42 to 48 hours at 35° C.
(§8) The following representative compounds prepared in the examples were measured for anti-Candida activity and anti-Aspergillus activity by measurement method in (1).

Experiment [2] deals with A. fumigatus Tsukuba strain. Kind of experiment: Anti-Aspergillus activity (MIC measurement). In kind it is cell-based. As to conditions: minimum inhibitory concentration (MIC) by visual inspection, RPMI 1640, 42 to 48 hours at 35° C. The protocol: as §1, §2, §3, §4, §5, §6, §7, §8

≈ marks a conversion by molar mass, not a printed value.

One may read the MIC as the smallest concentration in the dilution series that meets the test's criterion for growth inhibition. Read a high MIC as weaker potency. Take `Nc1ccc(-c2nnn(Cc3ccc(Cc4ccc(Cl)o4)cc3)n2)c(N)n1` [Example 22, 3-(2-(4-(5-Chloro-furan-2-ylmethyl)-benzyl)-2H-tetrazol-5-yl)-pyridin-2,6-diamine]: the MIC in experiment [1] was 0.39 µg/mL (≈ 1.02 µM); in experiment [2], 1.56 µg/mL (≈ 4.09 µM).
Consider `Nc1ncccc1-c1cn(Cc2cccc(Oc3ccccc3)c2)nn1` [Example 28, 3-(1-(3-Phenoxy-benzyl)-1H-[1,2,3]triazol-4-yl)-pyridin-2-ylamine], for which the MIC in experiment [1] turned out to be 0.1 µg/mL (≈ 0.291 µM); in experiment [2] it was 1.56 µg/mL (≈ 4.54 µM).
As to `COCc1ccc(-c2cn(Cc3ccc(Cc4ccc(Cl)o4)cc3)nn2)c(N)n1` [Example 19, 3-(1-(4-(5-Chloro-furan-2-ylmethyl)-benzyl)-1H-[1,2,3]triazol-4-yl)-6-methoxymethyl-pyridin-2-ylamine], the MIC in experiment [1] amounted to 0.39 µg/mL (≈ 0.952 µM); in experiment [2], 3.13 µg/mL (≈ 7.64 µM).
Regarding `Nc1ncccc1-c1nnn(Cc2cccc(Oc3ccccc3)c2)n1` [Example 31, 3-(2-(3-Phenoxy-benzyl)-2H-tetrazol-5-yl)-pyridin-2-ylamine], the figures for the MIC in experiment [1] and in experiment [2] were 0.39 µg/mL (≈ 1.13 µM) and 0.78 µg/mL (≈ 2.26 µM), respectively.
As for `Nc1ncccc1-c1noc(Cc2ccc(OCc3ccccn3)cc2)n1` [Example 23], the MIC was determined as 1.56 µg/mL (≈ 4.34 µM) in experiment [1] and 6.25 µg/mL (≈ 17.4 µM) in experiment [2].
On to `Nc1ncccc1-c1nnn(Cc2ccc(Oc3ccc(F)cc3)o2)n1` [Example 51, 3-(2-(5-(4-Fluoro-phenoxy)-furan-2-ylmethyl)-2H-tetrazol-5-yl)-pyridin-2-ylamine], for which the results for the MIC in experiment [1] and in experiment [2] were 6.25 µg/mL (≈ 17.7 µM) and 3.13 µg/mL (≈ 8.88 µM), respectively.
As for `Nc1ncccc1-c1nnc(Cc2ccc(OCc3ccccc3)cc2)[nH]1` [Example 15, 3-(5-(4-Benzyloxy-benzyl)-4H-[1,2,4]triazol-3-yl)-pyridin-2-ylamine], the MIC in experiment [1] is 6.25 µg/mL (≈ 17.5 µM); in experiment [2], 3.13 µg/mL (≈ 8.76 µM).
Turning to `Nc1ncccc1-c1nnn(Cc2ccc(Oc3ccccc3)s2)n1` [Example 46, 3-(2-(5-Phenoxy-thiophen-2-ylmethyl)-2H-tetrazol-5-yl)-pyridin-2-ylamine], the MIC in experiment [1] is 0.39 µg/mL (≈ 1.11 µM); in experiment [2] it was 1.56 µg/mL (≈ 4.45 µM).
For `CCCCOc1ccc(Cc2nnc(-c3cccnc3N)o2)cc1` [Example 45, 3-(5-(4-Butoxy-benzyl)-[1,3,4]oxadiazol-2-yl)-pyridin-2-ylamine], the MIC turned out to be 6.25 µg/mL (≈ 19.3 µM) in experiment [1] and 12.5 µg/mL (≈ 38.5 µM) in experiment [2].
Regarding `Nc1ccc(-c2cn(Cc3ccc(OCc4ccccc4)cc3)nn2)c(N)n1` [Example 4, 3-(1-(4-Benzyloxy-benzyl)-1H-[1,2,3]triazol-4-yl)-pyridin-2,6-diamine], the MIC in experiment [1] was 0.39 µg/mL (≈ 1.05 µM); in experiment [2] it was 0.78 µg/mL (≈ 2.09 µM).
`Cc1ccc(-c2cn(Cc3ccc(OCc4ccccc4)cc3)nn2)cn1` [Example 2, 5-(1-(4-Benzyloxy-benzyl)-1H-[1,2,3]triazol-4-yl)-2-methyl-pyridine]: the MIC is 3.13 µg/mL (≈ 8.78 µM) in experiment [1] and 1.56 µg/mL (≈ 4.38 µM) in experiment [2].
`Nc1ncccc1-c1nnn(Cc2ccc(Oc3ccccc3)cc2)n1` [Example 35, 3-(2-(4-Phenoxy-benzyl)-2H-tetrazol-5-yl)-pyridin-2-ylamine]: the MIC in experiment [1] was 1.56 µg/mL (≈ 4.53 µM); in experiment [2] it was 0.78 µg/mL (≈ 2.26 µM).
As for `Nc1ccc(-c2cn(Cc3ccc(OCc4ccccc4)cc3)nn2)cn1` [Example 3, 5-(1-(4-Benzyloxy-benzyl)-1H-[1,2,3]triazol-4-yl)-pyridin-2-ylamine], the MIC in experiment [1] came out at 1.56 µg/mL (≈ 4.36 µM); in experiment [2], 0.78 µg/mL (≈ 2.18 µM).
The corresponding values for `Nc1ncccc1-c1nnc(Cc2ccc(OCc3ccccc3)cc2)s1` [Example 8] are 0.78 µg/mL (≈ 2.08 µM) and 1.56 µg/mL (≈ 4.17 µM).
As for `Nc1ncccc1-c1cn(Cc2ccc(COc3ccccc3)cn2)nn1` [Example 37, 3-(1-(5-Phenoxymethyl-pyridin-2-ylmethyl)-1H-[1,2,3]triazol-4-yl)-pyridin-2-ylamine], the MIC in experiment [1] turned out to be 0.2 µg/mL (≈ 0.558 µM); in experiment [2] it was 1.56 µg/mL (≈ 4.35 µM).
Consider `Nc1ccc(-c2cn(Cc3cccc(Oc4ccccc4)c3)nn2)cn1` [Example 29, 5-(1-(3-Phenoxy-benzyl)-1H-[1,2,3]triazol-4-yl)-pyridin-2-ylamine], for which the figures for the MIC in experiment [1] and in experiment [2] were 0.39 µg/mL (≈ 1.14 µM) and 1.56 µg/mL (≈ 4.54 µM), respectively.
The matching figures for `Nc1ccc(-c2nnn(Cc3ccc(OCc4ccccc4)cc3)n2)c(N)n1` [Example 7, 3-(2-(4-Benzyloxy-benzyl)-2H-tetrazol-5-yl)-pyridin-2,6-diamine]: 0.39 µg/mL (≈ 1.04 µM) and 1.56 µg/mL (≈ 4.18 µM).
For `Nc1ncccc1-c1nnn(Cc2ccc(OCc3ccccc3)s2)n1` [Example 48, 3-(2-(5-Benzyloxy-thiophen-2-ylmethyl)-2H-tetrazol-5-yl)-pyridin-2-ylamine], the MIC in experiment [1] came to 0.39 µg/mL (≈ 1.07 µM); in experiment [2], 1.56 µg/mL (≈ 4.28 µM).
Regarding `COCc1ccc(-c2nnc(Cc3ccc(OCc4ccccc4)cc3)o2)c(N)n1` [Example 11], the values for the MIC in experiment [1] and in experiment [2] were 6.25 µg/mL (≈ 15.5 µM) and 3.13 µg/mL (≈ 7.78 µM), respectively.
In the case of `Cc1ccc(Cc2cccc(Cn3nnc(-c4cccnc4N)n3)c2)s1` [Example 52, 3-(2-(3-(5-Methyl-thiophen-2-ylmethyl)-benzyl)-2H-tetrazol-5-yl)-pyridin-2-ylamine], the MIC came to 1.56 µg/mL (≈ 4.3 µM) in experiment [1] and 3.13 µg/mL (≈ 8.64 µM) in experiment [2].
For the compound `Nc1ncccc1-n1cc(Cc2ccc(OCc3ccccc3)cc2)nn1` [Example 12, 3-(4-(4-Benzyloxy-benzyl)-[1,2,3]triazol-1-yl)-pyridin-2-ylamine], the MIC in experiment [1] and in experiment [2] was 0.2 µg/mL (≈ 0.56 µM) throughout.
Turning to `Nc1ncccc1-c1cn(Cc2ccc(COc3ccccn3)cc2)nn1` [Example 26, 3-(1-(4-(Pyridin-2-yloxymethyl)-benzyl)-1H-[1,2,3]triazol-4-yl)-pyridin-2-ylamine], the MIC in experiment [1] was determined as 0.05 µg/mL (≈ 0.14 µM); in experiment [2] it was 0.39 µg/mL (≈ 1.09 µM).
With `Nc1ncccc1-c1nnc(Cc2ccc(OCc3ccccn3)cc2)o1` [Example 24], the minimum inhibitory concentration (MIC) was determined as 1.56 µg/mL (≈ 4.34 µM) in experiment [1] and 6.25 µg/mL (≈ 17.4 µM) in experiment [2].
As for `CCOc1ccc(Cn2nnc(-c3cccnc3N)n2)cc1` [Example 50, 3-(2-(4-Ethoxy-benzyl)-2H-tetrazol-5-yl)-pyridin-2-ylamine], the figures for the MIC in experiment [1] and in experiment [2] were 6.25 µg/mL (≈ 21.1 µM) and greater than 25 µg/mL, respectively.
Take `Nc1ncccc1-c1nnn(Cc2ccn(Cc3ccccc3)c2)n1` [Example 55, 3-(2-(1-Benzyl-1H-pyrrol-3-ylmethyl)-2H-tetrazol-5-yl)-pyridin-2-ylamine]: the minimum inhibitory concentration (MIC) in experiment [1] was 0.1 µg/mL (≈ 0.302 µM); in experiment [2] it was 0.78 µg/mL (≈ 2.35 µM).
Consider `Nc1ncccc1-c1cn(Cc2ccc(Cc3ccc(Cl)o3)cc2)nn1` [Example 16, 3-(1-(4-(5-Chloro-furan-2-ylmethyl)-benzene)-1H-[1,2,3]triazol-4-yl)-pyridin-2-ylamine], for which the MIC in experiment [1] worked out at 0.05 µg/mL (≈ 0.137 µM); in experiment [2], 0.78 µg/mL (≈ 2.13 µM).
For the compound `Cc1ccc(-c2cn(Cc3ccc(Cc4ccc(Cl)o4)cc3)nn2)cn1` [Example 17, 5-(1-(4-(5-Chloro-furan-2-ylmethyl)-benzyl)-1H-[1,2,3]triazol-4-yl)-2-methyl-pyridine], the MIC in experiment [1] worked out at 3.13 µg/mL (≈ 8.58 µM); in experiment [2] it was 0.78 µg/mL (≈ 2.14 µM).
On to `Nc1ncccc1-c1nnn(Cc2ccccc2)n1` [Example 49, 3-(2-Benzyl-2H-tetrazol-5-yl)-pyridin-2-ylamine], for which the minimum inhibitory concentration (MIC) in experiment [1] is 1.56 µg/mL (≈ 6.18 µM); in experiment [2] it was 12.5 µg/mL (≈ 49.5 µM).
Turning to `Nc1ncccc1-c1nnn(Cc2ccc(Cc3ccc(Cl)o3)cc2)n1` [Example 21, 3-(2-(4-(5-Chloro-furan-2-ylmethyl)-benzyl)-2H-tetrazol-5-yl)-pyridin-2-ylamine], the MIC in experiment [1] and in experiment [2] was 0.39 µg/mL (≈ 1.06 µM) throughout.

The values above are taken from patent US8183264B2, “Pyridine derivative substituted by heteroaryl ring, and antifungal agent comprising the same” (Eisai R&D Managment Co., Ltd., priority 2006, dated 2012).
